From patent US20260042747A1, “KIT INHIBITORS, COMPOUNDS, PHARMACEUTICAL COMPOSITIONS, AND METHODS OF USE THEREOF” (Alivexis, Inc., priority 2022, published 2026)
Structures can show the parent of a compound that is named as a salt. Where two headings read alike, the source gives them in different places.

Key:
[1] = biological target: recombinant human KIT tyrosine kinase protein (Homo sapiens (Human), UniProt P10721); experiment: KIT tyrosine kinase assay (ADP-Glo); type: biochemical
Description: An in vitro assay utilizing the recombinant human KIT tyrosine kinase protein was developed to measure compound inhibition of KIT. KIT tyrosine kinase activity was measured by the ADP-Glo Kinase Assay system with poly […]) peptide substrate. Kinase Assay was performed in white 384-well plates and the luminescence was measured by Victor X5 Multilabel Counter (Perkin Elmer). Recombinant intracellular domain of human KIT protein was purchased from Carna Biosciences (Kobe, Japan). Poly […]) peptide was purchased from Sigma-Aldrich (St. Louis, Missouri, USA). ADP-Glo Kinase Assay reagent was purchased from Promega (Madison, Wisconsin, USA). Each test compound was dissolved in 100% DMSO to prepare 10 mM stock solutions. […] After the preincubation, 3 μL of substrate/ATP mixture was added and incubated for 1 hour at room temperature. The tyrosine phosphorylation by KIT kinase was quantified by ADP-Glo kinase assay kit following the manufacturer's protocol. Briefly, the phosphorylation reaction was terminated by adding 10 μL ADP-Glo reagent and incubated for 60 minutes at room temperature. 20 μL of Kinase Detection Reagent was added to each well and luminescence was measured by plate reader. […] Half maximal inhibitory concentration (IC50) was calculated by a Four […] Logistic Regression model using GraphPad Prism (GraphPad Software). The value without recombinant KIT protein and without test compound was used as a negative control (assay background).

M-07e cells = experiment: SCF-dependent M-07e cell proliferation assay; type: cell-based, human; settings: Homo sapiens, M-07e, 72 h, read-out: M-07e IC50
Description: SCF-dependent cell proliferation assay was developed to measure the inhibitory potency of the compounds in M-07e cells, which express wild-type human KIT protein. The assay was performed in 96-well plates and the IC50 of each KIT inhibitor was determined by CellTiter Glo Assay reagent and Victor X5 Multilabel Counter (Perkin Elmer).
M-07e cells were purchased from AcceGen Biotechnology. Cells were maintained with M-07e Growth medium: RPMI-1640 containing 20% FBS, 100 U/mL penicillin and 100 microgram/mL streptomycin, 10 ng/mL rhGM-CSF, 10 ng/mL rhSCF. M-07e cells were seeded at a density of 5000 cells/90 μL/well in 96-well plates. Test compounds were dissolved in 100% DMSO to make 20 mM stock solution and serially diluted 1:3 with 100% DMSO to make an 11-point dilution series with concen-trations from […] to 0.024 μM. The serially diluted compounds were then each diluted 1:50 with culture medium to obtain assay compound solutions containing 2% DMSO. Ten μL of assay compound solutions were added to the 90 μL of culture cell suspension in the 96-well plate, with a final DMSO concentration of 0.2%. The plates were then incubated in a 5% CO2 incubator at 37° C. for 3 days. To obtain Day Zero Controls for background calculation, cells were seeded at 5000 cells/100 μL in a new 96-well plate and processed on the same day. Both Day Zero controls and 3 day culture plates were then treated as follows. 100 μL of CellTiter Glo Assay reagent was added to each well and the plate was incubated at room temperature for 15 min on a shaker at 200-300 RPM. Then 100 μL of cell lysate samples were transferred to white wall 96-well plates and luminescence was measured by a plate reader. The luminescence of Day Zero Control was subtracted from the luminescence intensity of 3 day culture readings. The assay control for this experiment was cells treated with 0.2% DMSO in culture medium and wells with 100 μL of culture medium (0.2% DMSO without cells) were used as the blank for data analysis.
The IC50 value of each compound was determined by using % inhibition by nor-malizing inhibition in DMSO treated control wells to 0% using the following formula method: […]
Plot percent inhibition in proliferation of triplicates against the respective concen-trations of compound and fit the dose response curve using the sigmoidal dose response equation to generate the IC50 in GraphPad Prism 8 software.

[2] = SCF-dependent M-07e cell proliferation, 3 days, CellTiter Glo

Chain of recombinant human KIT tyrosine kinase protein (P10721 546-976): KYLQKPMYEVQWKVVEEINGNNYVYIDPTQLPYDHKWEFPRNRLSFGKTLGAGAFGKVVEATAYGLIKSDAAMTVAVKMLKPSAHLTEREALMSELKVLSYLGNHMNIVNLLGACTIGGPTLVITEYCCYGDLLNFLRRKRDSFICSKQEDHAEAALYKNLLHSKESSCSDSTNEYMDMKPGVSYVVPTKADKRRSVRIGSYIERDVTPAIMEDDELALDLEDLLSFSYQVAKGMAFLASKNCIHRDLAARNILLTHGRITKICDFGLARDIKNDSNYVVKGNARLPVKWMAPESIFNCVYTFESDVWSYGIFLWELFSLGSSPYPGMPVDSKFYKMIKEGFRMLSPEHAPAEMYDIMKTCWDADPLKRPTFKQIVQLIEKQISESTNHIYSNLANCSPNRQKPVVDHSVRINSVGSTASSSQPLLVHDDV

SMILES	IC50 ([1]; Table 99)	IC50 (M-07e cells; [2])	IC50 ([1]; Table 98)	IC50 (M-07e cells)
Cn1c(=O)[nH]c2cc(C(=O)NCc3ccc(OC4CC(C(F)(F)F)C4)nc3)ccc21 (centres unmarked) [Compound 103, 1-Methyl-2-oxo-N-((6-(3-(trifluoromethyl)cyclobutoxy)pyridin-3-yl)methyl)-2,3-dihyd ro-1H-benzimidazole-5-carboxamide]	42 nM	819 nM		
Cn1c(=O)[nH]c2cc(C(=O)NCc3ccc(Oc4cccc(F)c4F)nc3)ccc21 [Example 36]			50 nM	870 nM
Cn1c(=O)[nH]c2cc(C(=O)NCc3ccc(Oc4ccc(Cl)cc4F)nc3)ccc21 [Example 39]			35 nM	140 nM
Cn1c(=O)[nH]c2cc(C(=O)NCc3ccc(OC4CCOC(C)(C)C4)nc3)ccc21 (centres unmarked) [Example 48]			550 nM	8900 nM
Cn1c(=O)[nH]c2cc(C(=O)NCc3ccc(Nc4ccc(F)cc4)nc3)ccc21 [Example 57]		7300 nM	227 nM	
CCN(c1ccc(F)cc1)c1ccc(CNC(=O)c2ccc3c(c2)[nH]c(=O)n3C)cn1 [Example 58]			21 nM	2400 nM
CN(c1ccc(CNC(=O)c2ccc3c(c2)[nH]c(=O)n3C)cn1)c1ccccc1F [Example 59]			14 nM	190 nM
CN(c1ccc(CNC(=O)c2ccc3c(c2)[nH]c(=O)n3C)cn1)c1cccc(F)c1F [Example 61]			56 nM	760 nM
CN(c1ccc(CNC(=O)c2ccc3c(c2)[nH]c(=O)n3C)cn1)c1ccc(F)cc1F [Example 62]			170 nM	290 nM
CN(c1ccc(CNC(=O)c2ccc3c(c2)[nH]c(=O)n3C)cn1)C1CC(F)(F)C1 [Example 65]			35 nM	270 nM
CN(Cc1ccccc1)c1ccc(CNC(=O)c2ccc3c(c2)[nH]c(=O)n3C)cn1 [Example 66]			33 nM	79 nM
CN(CCC(F)(F)F)c1ccc(CNC(=O)c2ccc3c(c2)[nH]c(=O)n3C)cn1 [Example 67]			25 nM	220 nM
CN(CC1CC(F)(F)C1)c1ccc(CNC(=O)c2ccc3c(c2)[nH]c(=O)n3C)cn1 [Example 68]			42 nM	130 nM
CN(CC1CCCOC1)c1ccc(CNC(=O)c2ccc3c(c2)[nH]c(=O)n3C)cn1 (centres unmarked) [Example 69]			96 nM	520 nM
CN(CC1CCC(F)(F)CC1)c1ccc(CNC(=O)c2ccc3c(c2)[nH]c(=O)n3C)cn1 [Example 70]			61 nM	140 nM
CN(CC1CCCCO1)c1ccc(CNC(=O)c2ccc3c(c2)[nH]c(=O)n3C)cn1 (centres unmarked) [Example 71]			60 nM	310 nM
CN(CC1CCOCC1)c1ccc(CNC(=O)c2ccc3c(c2)[nH]c(=O)n3C)cn1 [Example 72]			84 nM	800 nM
CN(Cc1cccc(F)c1)c1ccc(CNC(=O)c2ccc3c(c2)[nH]c(=O)n3C)cn1 [Example 73]			27 nM	98 nM
CN(Cc1ccccc1F)c1ccc(CNC(=O)c2ccc3c(c2)[nH]c(=O)n3C)cn1 [Example 74]			25 nM	110 nM
CN(c1ccc(CNC(=O)c2ccc3c(c2)[nH]c(=O)n3C)cn1)C12CC(C1)C2 [Example 75]			61 nM	500 nM

SMILES	IC50 ([1]; Table 99)	IC50 (M-07e cells; [2])	IC50 ([1]; Table 98)	IC50 (M-07e cells)
CN(Cc1ccccn1)c1ccc(CNC(=O)c2ccc3c(c2)[nH]c(=O)n3C)cn1 [Example 76]			86 nM	1600 nM
CN(c1ccc(CNC(=O)c2ccc3c(c2)[nH]c(=O)n3C)cn1)C1CC(C)(C)C1 [Example 77]			29 nM	110 nM
CN(c1ccc(CNC(=O)c2ccc3c(c2)[nH]c(=O)n3C)cn1)C12CC(C)(C1)C2 [Example 78]			26 nM	150 nM
CN(c1ccc(CNC(=O)c2ccc3c(c2)[nH]c(=O)n3C)cn1)C12CC(C(F)(F)F)(C1)C2 [Example 80]			31 nM	240 nM
CC(c1ccccc1)N(C)c1ccc(CNC(=O)c2ccc3c(c2)[nH]c(=O)n3C)cn1 (centres unmarked) [Example 82]		730 nM	75 nM	
CC(C1CC1)N(C)c1ccc(CNC(=O)c2ccc3c(c2)[nH]c(=O)n3C)cn1 (centres unmarked) [Example 83]			41 nM	300 nM
CCC(C)N(C)c1ccc(CNC(=O)c2ccc3c(c2)[nH]c(=O)n3C)cn1 (centres unmarked) [Example 84]			16 nM	180 nM
CC(N(C)c1ccc(CNC(=O)c2ccc3c(c2)[nH]c(=O)n3C)cn1)C(F)(F)F (centres unmarked) [Example 86]			15 nM	120 nM
CN(c1ncc(CNC(=O)c2ccc3c(c2)[nH]c(=O)n3C)s1)C1CCC(F)(F)CC1 [Example 90]			48 nM	1800 nM
CN(CC1CCC(F)(F)CC1)c1ncc(CNC(=O)c2ccc3c(c2)[nH]c(=O)n3C)s1 [Example 92]			59 nM	1900 nM
Cn1c(=O)[nH]c2cc(C(=O)NCc3cnc(N(C)[C@H]4C[C@@H](C(F)(F)F)C4)cn3)ccc21 [Example 95]			24 nM	190 nM
Cn1c(=O)[nH]c2cc(C(=O)NCc3ccc(N4CCCC4(C)C)nc3)ccc21 [Example 97]			34 nM	240 nM
C[C@H]1CCCN1c1cnc(CNC(=O)c2ccc3c(c2)[nH]c(=O)n3C)cn1 [Example 98]			71 nM	990 nM
C[C@@H]1CCCN1c1ccc(CNC(=O)c2ccc3c(c2)[nH]c(=O)n3C)cn1 [Example 99]			50 nM	540 nM
Cn1c(=O)[nH]c2cc(C(=O)NCc3cnc4c(ccn4-c4ccccc4F)c3)ccc21 [Example 100]			53 nM	250 nM
Cn1c(=O)[nH]c2cc(C(=O)NCc3cnc4c(c3)CCN4c3c(F)cccc3F)ccc21 [Example 102]	55 nM			270 nM
CN(c1ccc(CNC(=O)c2ccc3c(c2)[nH]c(=O)n3C)cn1)C1CCCC(O)C1 (centres unmarked) [Example 104, N-((6-((3-Hydroxycyclohexyl)(methyl)amino)pyridin-3-yl)methyl)-1-methyl-2-oxo-2,3-d ihydro-1H-benzimidazole-5-carboxamide]	51 nM	7660 nM		
CN(c1ccc(CNC(=O)c2ccc3c(c2)[nH]c(=O)n3C)cn1)[C@H]1CCC(F)(F)C1 [Example 105, (S)—N-((6-((3,3-Difluorocyclopentyl)(methyl)amino)pyridin-3-yl)methyl)-1-methyl-2-o xo-2,3-dihydro-1H-benzimidazole-5-carboxamide]	21 nM	13 nM		
CN(c1ccc(CNC(=O)c2ccc3c(c2)[nH]c(=O)n3C)cn1)C1CC2C(C1)C2(F)F (centres unmarked) [Example 108, N-((6-((6,6-Difluorobicyclo[3.1.0]hexan-3-yl)(methyl)amino)pyridin-3-yl)methyl)-1-met hyl-2-oxo-2,3-dihydro-1H-benzimidazole-5-carboxamide]	22 nM	65 nM		
CN(c1ccc(CNC(=O)c2ccc3c(c2)[nH]c(=O)n3C)cn1)C1CC2(CC2)C1 [Example 109, 1-Methyl-N-((6-(methyl(spiro[2.3]hexan-5-yl)amino)pyridin-3-yl)methyl)-2-oxo-2,3-d ihydro-1H-benzimidazole-5-carboxamide formate]	25 nM	12 nM		
